In patent US20150307846A1, “GROWTH FACTOR COCKTAIL TO ENHANCE OSTEOGENIC DIFFERENTIATION OF MESENCHYMAL CELLS” (University of Pennsylvania, priority 2012, published 2015):

Legend:
Assay type in all cases: cell-based
[1] = test system: human periosteum derived cells (hPDCs); assay: Alkaline phosphatase activity / ALP staining in hPDCs
Method: (§1) FIG. 8: A) Identification of factors that drive proliferation of hPDCs. A cell pool of hPDCs was either treated with growth medium (GM, negative control), medium containing eight factors (all factors) or medium containing eight minus one factor for 8 days. The factors are osteogenic medium (OM), calcium ions (Ca, 6 mM), phosphate ions (Pi, 4 mM), TNFα (50 ng/ml), IL6 (10 ng/ml), Wnt3A (50 ng/ml), EGF (20 ng/ml), and TGFβ1 (10 ng/ml). Proliferation is expressed as population doublings and was measured after 8 days after stimulation (n=3, error bars: standard deviation). The horizontal line is a reference line set on the proliferation in the “all factor” condition. B) Identification of factors that drive alkaline phosphatase activity in hPDCs. The percentage alkaline positive cells is used as a metric for early osteoblast differentiation.
FIG. 9: Gene expression of early (A) and late (B) bone markers in hPDCs treated with GM, OM or GM/OM supplemented with a growth factor mix (GF) containing TNFα, EGF, TGFβ1 and IL6. […]
(§2) Cell culture. […] For in vitro osteogenic differentiation assays, passage 6 to passage 9 hPDCs (pool of four different donors) were seeded at 3000 cells/cm^2 in either 96-well plates to assess proliferation and alkaline phosphatase activity or in the middle eight wells of a 24-well plate for quantifying gene expression. […]

[2] = test system: human periosteum derived cells (hPDCs); assay: Gene expression of bone markers in hPDCs in 2D culture (Taqman PCR); conditions: for iBSP mRNA levels: at the used concentrations (Ca 6 mM, Pi 4 mM)
Method: Same experimental design as in A. C) Identification of factors involved in osteoblast maturation. hPDCs were treated with OM and TGFβ1 for 6 days, followed by stimulation with GM (negative control), GM containing six factors or GM supplement with six minus one factor for 4 days. The factors are ascorbic acid (Asc. Ac., 57 μM), TNFα (50 ng/ml), IL6 (10 ng/ml), EGF (20 ng/ml), Ca (6 mM) and Pi (4 mM). To evaluate osteoblast maturation, gene expression of RUNX2, OSX, DLX5, iBSP, OC and RANKL is measured with Taqman PCR. […] D) Gene expression of osteoblast markers in hPDCs treated with OM and TGFβ1 for one week followed by GM supplemented with a growth factor mix (GF) containing ascorbic acid (57 μM), EGF (20 ng/ml), IL6 (10 ng/ml), Ca (6 mM), and Pi (4 mM) (“GF+C6P4”) or the same mix with reduced Ca (3 mM) and Pi (2 mM) ions (“GF+C3P2”). Gene expression is expressed as fold increase as compared to the GM condition. (n=3, error bars: standard deviations, *p≦00.05, Mann-Whitney U test). E) Gene expression of osteoblast markers in hPDCs treated with OM/TGFβ1 for 10 days, or with GM supplemented with ascorbic acid, EGF, IL6, C3P2 for 10 days (“EGF/IL6/C3P2”), or sequential stimulation with OM/TGFβ1 for 6 days followed by GM supplemented with ascorbic acid, EGF, IL6, C3P2 (“EGF/IL6/C3P2”) for 4 days. Gene expression is expressed as fold increase as compared to hPDCs cultured in OM/TGFβ1 (n=3, error bars: standard deviations, *p≦00.05, Mann-Whitney U test).
Cell culture. Periosteum was harvested from four patients (male/female/age) and periosteal cells were enzymatically released from the matrix. Tissue culture plastic adherent cells were expanded in DMEM medium supplemented with 10% fetal bovine serum as described previously (6). For in vitro osteogenic differentiation assays, passage 6 to passage 9 hPDCs (pool of four different donors) were seeded at 3000 cells/cm^2 in either 96-well plates to assess proliferation and alkaline phosphatase activity or in the middle eight wells of a 24-well plate for quantifying gene expression.
Medium was changed every other day. Supplemental factors were TNFα, IL6 (R&D Systems, USA), TGFβ1 (Stem Cell Research, USA), Ascorbic Acid (Sigma,USA), Ca and Pi (SigmaUSA). Calcium and phosphate ion working solutions were prepared as described in (7).
Quantitative PCR. Complementary DNA (cDNA) was obtained by reverse transcription of […] of total RNA with Oligo (dT)20 as primer (Superscript Ill; Invitrogen, Merelbeke, Belgium). Sybr Green PCR was performed in 10 pl reaction in a Rotor-Gene-Q (Qiagen) with following protocol: 95° C. for 3 seconds, 60° C. for 20 seconds. Primer sequences for specific Sybr green PCR was performed with human specific primers (Table 5). Taqman PCR primer/probe combinations (Applied Biosystems) were used in the in vitro osteogenesis assays.
Statistical Analysis. Experiments were carried out in triplicate. The error bars represent the standard error of the mean when cells from multiple donors are used. Standard deviations are shown when experiments are performed with a hPDC cell pool (n=3). Statistical comparison between experimental conditions was performed with a Mann-Whitney U test. A p-value ≦0.05 was considered as being statistically significant.

[3] = test system: human periosteum derived cells (hPDCs); assay: ALP/Alizarin Red staining of calcium deposits (mineralization) on hPDCs; conditions: hPDCs after OM and TGFβ1 one week, then 4 days
Description: FIG. 9: Gene expression of early (A) and late (B) bone markers in hPDCs treated with GM, OM or GM/OM supplemented with a growth factor mix (GF) containing TNFα, EGF, TGFβ1 and IL6. C) ALP staining of hPDCs that were stimulated with OM and TGFβ1 for one week followed by GM with one factor in the absence or presence of ascorbic acid for 2 days. D) ALP/Alizarin Red staining to stain calcium deposits on hPDCs pre-treated with OM and TGFβ1 for one week followed by GM with six minus one factors for four days in the absence or presence of ascorbic acid.
To overcome the inhibitory effect of OM on later stages of osteoblastogenesis, we considered to explore a two stage protocol wherein hPDCs were treated with OM and TGFβ1 to stimulate proliferation and ALP activity. After six days, medium was changed to growth medium supplemented with six factors (ascorbic acid, TNFα, IL6, EGF, Ca, Pi) minus one factor for 4 days. At this stage, ascorbic acid was included as a factor, because it promoted ALP activity (FIG. 9C) and mineralization (FIG. 9D) in vitro. […] Gene expression levels of RUNX2 were decreased when ascorbic acid was omitted from the mix. […] Furthermore, EGF, calcium and phosphate were required for DLX5 transcription, but at the used concentrations, calcium and phosphate decreased iBSP mRNA levels (FIG. 8C).

[4] = test system: human periosteum derived cells (hPDCs); assay: Proliferation of hPDCs in 2D culture (population doublings); conditions: 8 days, eight factors minus one
Method: as §1
as §2, with “culture. Periosteum was harvested from four patients (male/female/age) and periosteal cells were enzymatically released from the matrix.” for “culture.”

[5] = two stage protocol, six factors minus one, 4 days

Compound	RANKL expression in medium devoid of the factor [2, 5]	iBSP mRNA levels [2]	role in DLX5 transcription [2, 5]	also measured
O=C1O[C@H]([C@@H](O)CO)C(O)=C1O [ascorbic acid, reference compound]	lower levels	–	–	ALP activity (staining) ([1]; hPDCs after OM and TGFβ1 one week, then GM with factor 2 days): promoted; RUNX2 gene expression when the factor was omitted from the mix [2, 5]: decreased; mineralization [3]: promoted
[Ca] [calcium]	–	decreased	required	–
IL6: cytokine ligand, 10 ng/ml	lower levels	–	–	–
TGFβ1: growth factor ligand, 10 ng/ml	–	–	–	effect on proliferation (leave-one-out) [4]: strong inducers; effect on ALP activity (leave-one-out) ([1]; hPDCs, 8 days, eight factors minus one): strong inducers
TNFα	lower levels	–	–	effect on osteogenic differentiation [2, 5]: strong inhibitor; expression levels of OSX, iBSP and OC when the factor was removed from the cocktail [2, 5]: enhanced
phosphate	–	decreased	required	–
